# Earlier results as cited in publication PMC4084622 (Journal of Medicinal Chemistry, 2014).
# Test system: M. tuberculosis
# Conditions: M. tuberculosis H37Rv, Erdman, and drug-resistant strains; cited from earlier work
structure (smiles),measurement,value
"CC(C)=CCC/C(C)=C/CNCCNC1C2CC3CC(C2)CC1C3 (stereo not shown) [compound 1, SQ109]",minimum inhibitory concentration (MIC),0.7 to 1.56 µM
